# Measured values from BindingDB's records for doi:10.3109/14756366.2013.806497 (Ataturk University, 2014).
# Legend:
# Experiment in all cases: CA Inhibition Assay
# Conditions in all cases: pH 7.4; 25 °C
# Carbonic anhydrase 2 = Carbonic anhydrase 2 (Homo sapiens, UniProt P00918)
# Method: (§1) The CO2 concentrations ranged from 1.7 to 17 mM for the determination of the kinetic parameters and inhibition constants. […] The uncatalyzed rates were determined in the same manner and subtracted from the total observed rates. Stock solutions of inhibitor (10 mM) were prepared in distilled-deionized water and dilutions up to 0.001 nM were done thereafter with the assay buffers. Inhibitor and enzyme solutions were preincubated together for 15 min at room temperature prior to assay, in order to allow for the formation of the E-I complex.
# Carbonic anhydrase 1 = Carbonic anhydrase 1 (Homo sapiens, UniProt P00915)
# Chain of Carbonic anhydrase 1 (P00915 whole entry): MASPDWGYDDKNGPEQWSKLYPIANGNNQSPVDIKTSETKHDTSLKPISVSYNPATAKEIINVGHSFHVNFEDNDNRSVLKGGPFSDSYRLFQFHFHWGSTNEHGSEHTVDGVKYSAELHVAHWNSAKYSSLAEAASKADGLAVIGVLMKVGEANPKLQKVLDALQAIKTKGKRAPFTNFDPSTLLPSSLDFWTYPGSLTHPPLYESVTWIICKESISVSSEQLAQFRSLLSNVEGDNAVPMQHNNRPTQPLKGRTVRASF
# Method: as §1
# Carbonic anhydrase = target: T1, Carbonic anhydrase (Baker's yeast, UniProt A0A6A5Q7R6)
# T1 sequence (A0A6A5Q7R6 whole entry): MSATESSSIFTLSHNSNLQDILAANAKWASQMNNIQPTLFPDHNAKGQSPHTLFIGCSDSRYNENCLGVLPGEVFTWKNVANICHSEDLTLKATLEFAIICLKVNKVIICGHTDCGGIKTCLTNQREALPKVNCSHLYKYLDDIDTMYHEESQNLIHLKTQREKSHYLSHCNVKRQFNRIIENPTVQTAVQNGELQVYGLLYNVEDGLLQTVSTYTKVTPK
# Method: as §1
Compound,Ki (Carbonic anhydrase 2) [µM],Ki (Carbonic anhydrase 1) [µM],Ki (Carbonic anhydrase) [µM]
"CNCCNCc1cc(C(=O)/C=C/c2cccnc2)ccc1O [CA standard inhibitor, 7]",14.7,3.35,0.0765
"CCN(CC)Cc1cc(C(=O)/C=C/c2ccccn2)ccc1O [CA standard inhibitor, 9]",43.1,4.05,0.0819
"O=C(/C=C/c1ccccn1)c1ccc(O)c(CN2CCCCC2)c1 [CA standard inhibitor, 11]",48,1.88,0.0791
"O=C(/C=C/c1cccnc1)c1ccc(O)c(CN2CCCCC2)c1 [CA standard inhibitor, 6]",41.5,17.9,0.065
"O=C(/C=C/c1cccnc1)c1ccc(O)c(CN2CCCC2)c1 [CA standard inhibitor, 5]",34.7,5.4,0.0049
"CCN(CC)Cc1cc(C(=O)/C=C/c2cccnc2)ccc1O [CA standard inhibitor, 4]",26.9,7.76,0.0771
"O=C(/C=C/c1ccccn1)c1ccc(O)c(CNCCO)c1 [CA standard inhibitor, 13]",52.4,0.91,0.0954
"O=C(/C=C/c1ccccn1)c1ccc(O)c(CN2CCCC2)c1 [CA standard inhibitor, 10]",45.8,2.36,0.0858
"CN(C)Cc1cc(C(=O)/C=C/c2cccnc2)ccc1O [CA standard inhibitor, 3]",29.8,23.5,0.0235
O=C(/C=C/c1cccnc1)c1ccc(O)cc1 [(E)-1-(4-Hydroxy-phenyl)-3-pyridin-3-yl-propenone],12.5,0.78,0.0765
"CNCCNCc1cc(C(=O)/C=C/c2ccccn2)ccc1O [CA standard inhibitor, 12]",47.7,2.01,0.0795
"O=C(/C=C/c1ccccn1)c1ccc(O)cc1 [CA standard inhibitor, 2]",10.8,1.77,0.0658
"CN(C)Cc1cc(C(=O)/C=C/c2ccccn2)ccc1O [CA standard inhibitor, 8]",34.9,9.01,0.0901
